From ChEMBL document CHEMBL5550112, “Development of a fluorescent ligand that can illuminate nuclear G-quadruplexes and modulate oncogene expression” (Bioorg Med Chem, 2024)
Activity calls are given as the source filed them. No cut-off for these calls is given here.

How the values were obtained:
MDA-MB-231 [1] = experiment: Induction of apoptosis in human MDA-MB-231 cells assessed as downregulation of KRAS gene expression at 10 to 20 uM incubated for 24 hrs by RT-PCR analysis; format: functional, cell-based; details: dose 10-20 µM
MDA-MB-231 [2] = experiment: Induction of cell cycle arrest in human MDA-MB-231 cells assessed as accumulation of cells at G0-G1 phase at 10 uM incubated for 24 hrs by flow cytometry (reference value: 69.6 %); format: functional
MDA-MB-231 [3] = experiment: Induction of cell cycle arrest in human MDA-MB-231 cells assessed as accumulation of cells at G2-M phase at 15 uM incubated for 24 hrs by flow cytometry (reference value: 16.8 %); format: functional
Quadruplex DNA [4] = experiment: Binding affinity to KRAS G-quadruplex DNA (unknown origin) assessed as dissociation constant by fluorescence spectrophotometric analysis; format: nucleic-acid assay
Quadruplex DNA [5] = experiment: Binding affinity to KRAS G-quadruplex DNA (unknown origin) assessed as increase in fluorescence by measuring red shift at 5 uM by fluorescence titration spectra analysis; format: nucleic-acid assay
Quadruplex DNA [6] = experiment: Binding affinity to 3'-Cy5-labelled c-MYC G-quadruplex DNA (unknown origin) assessed as decrease in Cy5 fluorescence upto 5 uM by fluorescence quenching analysis; format: nucleic-acid assay
DNA [7] = experiment: Binding affinity to Duplex DNA (unknown origin) assessed as hypochromic red shift at 5 uM by absorption spectra analysis; format: nucleic-acid assay
Quadruplex DNA [8] = experiment: Stabilization of FAM/TAMRA-labelled c-MYC G-quadruplex DNA (unknown origin) assessed as change in melting temperature in presence of duplex DNA by FRET assay; format: nucleic-acid assay
MDA-MB-231 [9] = experiment: Induction of cell cycle arrest in human MDA-MB-231 cells assessed as accumulation of cells at G2-M phase at 10 uM incubated for 24 hrs by flow cytometry (reference value: 16.8 %); format: functional
DNA [10] = experiment: Binding affinity to Duplex DNA (unknown origin) assessed as increase in fluorescence by measuring red shift at 5 uM by fluorescence titration spectra analysis; format: nucleic-acid assay
MDA-MB-231 [11] = experiment: Induction of cell cycle arrest in human MDA-MB-231 cells assessed as accumulation of cells at sub-G1 phase at 10 uM incubated for 24 hrs by flow cytometry (reference value: 0.6 %); format: functional
MDA-MB-231 [12] = experiment: Induction of cell cycle arrest in human MDA-MB-231 cells assessed as accumulation of cells at S phase at 15 uM incubated for 24 hrs by flow cytometry (reference value: 13 %); format: functional
MDA-MB-231 [13] = experiment: Induction of cell death in human MDA-MB-231 cells cultured as 3D tumor spheroids assessed as increase in red fluorescence intensity at 20 uM incubated for 7 days by propidium iodide staining based imaging analysis; format: functional; details: time 7.0 day
MDA-MB-231 [14] = experiment: Induction of apoptosis in human MDA-MB-231 cells assessed as […] protein expression at 10 to 20 uM incubated for 24 hrs by Western blot analysis; format: functional, cell-based; details: dose 10-20 µM
MDA-MB-231 [15] = experiment: Antiproliferative activity against human MDA-MB-231 cells cultured as 3D tumor spheroids assessed as inhibition of tumor volume incubated for 7 days; format: functional, cell-based; details: time 7.0 day
MDA-MB-231 [16] = experiment: Induction of apoptosis in human MDA-MB-231 cells assessed as downregulation of KRAS protein expression at 10 to 20 uM incubated for 24 hrs by Western blot analysis; format: functional, cell-based; details: dose 10-20 µM
Quadruplex DNA [17] = experiment: Binding affinity to Antiparallel ODN G-quadruplex DNA (unknown origin) assessed as increase in fluorescence intensity at 5 uM by fluorescence spectrophotometric analysis; format: nucleic-acid assay
MDA-MB-231 [18] = experiment: Induction of apoptosis in human MDA-MB-231 cells assessed as downregulation of PARP protein expression at 10 to 20 uM incubated for 24 hrs by Western blot analysis; format: functional, cell-based; details: dose 10-20 µM
Quadruplex DNA [19] = experiment: Binding affinity to c-MYC G-quadruplex DNA (unknown origin) assessed as imino proton signal by NMR spectral analysis; format: nucleic-acid assay
MDA-MB-231 [20] = experiment: Induction of cell cycle arrest in human MDA-MB-231 cells assessed as accumulation of cells at sub-G1 phase at 20 uM incubated for 24 hrs by flow cytometry (reference value: 0.6 %); format: functional
Quadruplex DNA [21] = experiment: Binding affinity to Parallel VAV1 G-quadruplex DNA (unknown origin) assessed as increase in fluorescence intensity at 5 uM by fluorescence spectrophotometric analysis; format: nucleic-acid assay
MDA-MB-231 [22] = experiment: Induction of cell cycle arrest in human MDA-MB-231 cells assessed as accumulation of cells at G0-G1 phase at 15 uM incubated for 24 hrs by flow cytometry (reference value: 69.6 %); format: functional
Quadruplex DNA [23] = experiment: Binding affinity to Antiparallel HRAS G-quadruplex DNA (unknown origin) assessed as increase in fluorescence intensity at 5 uM by fluorescence spectrophotometric analysis; format: nucleic-acid assay
Quadruplex DNA [24] = experiment: Binding affinity to KRAS G-quadruplex DNA (unknown origin) assessed as fluorescence quantum yield by fluorescence spectrophotometric analysis; format: nucleic-acid assay
Quadruplex DNA [25] = experiment: Binding affinity to c-MYC G-quadruplex DNA (unknown origin) assessed as increase in fluorescence by measuring red shift at 5 uM by fluorescence titration spectra analysis; format: nucleic-acid assay
MDA-MB-231 [26] = experiment: Induction of apoptosis in human MDA-MB-231 cells assessed as downregulation of c-MYC gene expression at 10 to 20 uM incubated for 24 hrs by RT-PCR analysis; format: functional, cell-based; details: dose 10-20 µM
MDA-MB-231 [27] = experiment: Induction of cell death in human MDA-MB-231 cells cultured as 3D tumor spheroids assessed as increase in red fluorescence intensity at 40 uM incubated for 7 days by propidium iodide staining based imaging analysis; format: functional; details: time 7.0 day
Quadruplex DNA [28] = experiment: Binding affinity to c-MYC G-quadruplex DNA (unknown origin) assessed as fluorescence quantum yield by fluorescence spectrophotometric analysis; format: nucleic-acid assay
Quadruplex DNA [29] = experiment: Binding affinity to Parallel c-MYC G-quadruplex DNA (unknown origin) assessed as increase in fluorescence intensity at 5 uM by fluorescence spectrophotometric analysis; format: nucleic-acid assay
DNA [30] = experiment: Binding affinity to Duplex DNA (unknown origin) assessed as dissociation constant by fluorescence spectrophotometric analysis; format: nucleic-acid assay
Quadruplex DNA [31] = experiment: Binding affinity to 5'-Cy5-labelled c-MYC G-quadruplex DNA (unknown origin) assessed as decrease in Cy5 fluorescence upto 5 uM by fluorescence quenching analysis; format: nucleic-acid assay

SMILES: CCn1c2ccccc2c2cc(/C=C/c3sc4ccccc4[n+]3C)ccc21.[I-]
- Activity (MDA-MB-231 [1]): Active
- Activity (MDA-MB-231 [2]): 66.5%
- Activity (MDA-MB-231 [3]): 10.3%
- Kd (Quadruplex DNA [4]): 500 nM
- Activity (Quadruplex DNA [5]): Active
- Activity (Quadruplex DNA [6]): Active
- Activity (DNA [7]): Active
- ΔTm (Quadruplex DNA [8]): 8.1 °C
- Activity (MDA-MB-231 [9]): 16%
- Activity (DNA [10]): Active
- Activity (MDA-MB-231 [11]): 3%
- Activity (MDA-MB-231 [12]): 10.2%
- Activity (MDA-MB-231 [13]): Active
- Activity (MDA-MB-231 [14]): Active
- Activity (MDA-MB-231 [15]): Dose-Dependent Effect
- Activity (MDA-MB-231 [16]): Active
- Activity (Quadruplex DNA [17]): Active
- Activity (MDA-MB-231 [18]): Active
- Activity (Quadruplex DNA [19]): Active
- Activity (MDA-MB-231 [20]): 56.7%
- Activity (Quadruplex DNA [21]): Active
- Activity (MDA-MB-231 [22]): 47.2%
- Activity (Quadruplex DNA [23]): Active
- Activity (Quadruplex DNA [24]): 0.19
- Activity (Quadruplex DNA [25]): Active
- Activity (MDA-MB-231 [26]): Active
- Activity (MDA-MB-231 [27]): Active
- Activity (Quadruplex DNA [28]): 0.3
- Activity (Quadruplex DNA [29]): Active
- Kd (DNA [30]): 5300 nM
- Activity (Quadruplex DNA [31]): Active
